Experimental data from paper PMC5848512, “The Penicillium chrysogenum transporter PcAraT enables high-affinity, glucose-insensitive L-arabinose transport in Saccharomyces cerevisiae” (Biotechnology for Biofuels, 2018).

Legend:
PcAraT = target: T1, PcAraT (Penicillium rubens, UniProt B6HE12); test: inhibition of […]-L-arabinose uptake in transporter-deleted yeast cells; type: cell-based
T1 construct: gene Pc20g01790; full-length ORF, codon-pair optimized synthetic gene, pRS313-PcaraT (HXT7 promoter) in S. cerevisiae DS68625 (hxt1-7, gal2 deleted)
T1 sequence (B6HE12 1-511): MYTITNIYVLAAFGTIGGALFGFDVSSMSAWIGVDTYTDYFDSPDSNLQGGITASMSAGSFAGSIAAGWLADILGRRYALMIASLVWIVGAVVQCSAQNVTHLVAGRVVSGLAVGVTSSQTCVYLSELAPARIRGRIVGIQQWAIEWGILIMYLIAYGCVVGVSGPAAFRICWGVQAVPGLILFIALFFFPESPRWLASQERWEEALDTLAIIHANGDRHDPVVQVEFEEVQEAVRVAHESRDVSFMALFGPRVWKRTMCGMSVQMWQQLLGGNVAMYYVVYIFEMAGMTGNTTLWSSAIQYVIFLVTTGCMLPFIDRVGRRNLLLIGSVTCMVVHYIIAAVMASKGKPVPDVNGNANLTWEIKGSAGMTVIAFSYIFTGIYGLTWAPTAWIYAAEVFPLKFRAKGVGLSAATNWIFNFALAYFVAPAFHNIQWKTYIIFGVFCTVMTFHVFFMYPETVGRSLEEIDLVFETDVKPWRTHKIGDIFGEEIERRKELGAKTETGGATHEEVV

Gal2 = target: T2, Gal2 (Saccharomyces cerevisiae, UniProt P13181); test: as above; type: cell-based
T2 construct: full-length, pRS313-GAL2 (HXT7 promoter) in S. cerevisiae DS68625 (hxt1-7, gal2 deleted)
T2 sequence (P13181 1-574): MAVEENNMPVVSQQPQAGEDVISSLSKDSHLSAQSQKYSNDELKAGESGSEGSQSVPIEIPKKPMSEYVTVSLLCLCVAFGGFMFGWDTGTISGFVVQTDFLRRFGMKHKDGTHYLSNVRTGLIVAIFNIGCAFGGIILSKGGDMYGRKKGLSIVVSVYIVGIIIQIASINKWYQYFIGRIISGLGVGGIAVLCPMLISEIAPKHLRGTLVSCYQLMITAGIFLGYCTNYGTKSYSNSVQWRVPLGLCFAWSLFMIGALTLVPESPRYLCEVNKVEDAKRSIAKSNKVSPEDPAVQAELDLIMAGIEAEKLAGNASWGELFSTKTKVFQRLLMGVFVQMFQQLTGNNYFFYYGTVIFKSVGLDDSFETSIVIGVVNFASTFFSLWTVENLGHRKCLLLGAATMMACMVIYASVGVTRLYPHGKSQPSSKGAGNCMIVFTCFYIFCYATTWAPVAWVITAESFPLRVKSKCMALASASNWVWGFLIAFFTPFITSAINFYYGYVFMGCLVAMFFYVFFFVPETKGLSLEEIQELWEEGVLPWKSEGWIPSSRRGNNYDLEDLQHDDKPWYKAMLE

OC[C@H]1OC(O)[C@H](O)[C@@H](O)[C@@H]1O (stereo partly drawn) [D-glucose]
inhibition at 100000 µM (PcAraT): 63% | inhibition at 100000 µM (Gal2): 85%

OC1OC[C@@H](O)[C@H](O)[C@H]1O (stereo partly drawn) [D-xylose]
inhibition at 100000 µM (PcAraT): 22% | inhibition at 100000 µM (Gal2): 29%
